Assay results taken from patent US20120010161A1, “NOVEL AZAPEPTIDE OR AZAPEPTIDOMIMETIC COMPOUNDS INHIBITING BCRP AND/OR P-GP” (CENTRE NATIONAL DE LA RECHERCHE SCIENTIFIQUE, priority 2009, published 2012).
“Also recorded” adds a separate entry of the source.

Assays:
P-gp/ABCB1 = target: T1, P-gp/ABCB1 (Homo sapiens, UniProt P08183); assay: Flow cytometry: mitoxantrone efflux induced by ABCB1 in transfected NIH3T3 cells; format: cell-based; conditions: for inhibition at 2 μM / inhibition at 10 μM: human, NIH3T3 cells transfected with ABCB1 (vector pHaMDR1/A), probe mitoxantrone (5 μM); for inhibition at 2 μM: 2 μM compound, read-out: P-gp/ABCB1 % efficacy 2 μM; for inhibition at 10 μM: 10 μM compound, read-out: P-gp/ABCB1 % efficacy 10 μM
T1 construct: expressed in transfected cells; host or cells: NIH3T3 transfected with pHaMDR1/A
Description: Cell cultures. The human […] HEK-293 transfected with the vector pcDNA3.1 including or not the gene encoding ABCG2 (Robey, R. W., Honjo, Y., Morisaki, K., Nadjem, T. A., Runge, S., Risbood, M., Poruchynsky, M. S., Bates, S. E. 2003, Br. J. Cancer 89(10) 1971-1978) was used to test the efficacy of the products on ABCG2. The newborn hamster kidney cell line BHK21 either natural (negative control) or transfected with the vector pNUT-MRP/His expressing the gene encoding ABCC1 (Chang, Xiu-Bao, Hou, Yue-Xian, Riordan, John R. 1997, J. Biol. Chem. 272(49) 30962-30968) was used to test the efficacy of the products on ABCC1. The cell line NIH3T3 natural or transfected with the vector pHaMDR1/A expressing ABCB1 (Cardarelli, Carol O., Aksentijevich, Ivan, Pastan, Ira, Gottesman, Michael M. 1995 Cancer Res. 55 1086-1091) was used to test the efficacy of the compounds on ABCB1. The various cell types are cultured according to the protocols described previously (Robey, R. W., Honjo, Y., Morisaki, K., Nadjem, T. A., Runge, S., Risbood, M., Poruchynsky, M. S., Bates, S. E. 2003, Br. J. Cancer 89(10) 1971-1978 for the line HEK293, Chang, Xiu-Bao, Hou, Yue-Xian, Riordan, John R. 1997, J. Biol. Chem. 272(49) 30962-30968 for the line BHK21 and Cardarelli, Carol O., Aksentijevich, Ivan, Pastan, Ira, Gottesman, Michael M. 1995 Cancer Res. 55 1086-1091 for the line NIH3T3).
FIG. 1 schematically illustrates an efflux of substrate induced by a typical ABC transporter. The substrates S, such as mitoxantrone effluxed with ABCG2 and ABCB1 or daunorubicin effluxed with ABCC1, are accumulated in the cells and expelled by the transporter T, leading to a decrease in intracellular fluorescence. In the case of accumulation of the product, typically by inhibition of the efflux protein, the intracellular fluorescence increases.
Flow cytometry. Transfected or untransfected HEK-293 and BHK-21 cells are in a first stage placed in contact with substrate (5 μM mitoxantrone or 1 μM daunorubicin depending on the transporter). The substrate is accumulated for 30 minutes at 37° C. in the presence or absence of varied concentrations of the test molecules, at 0.5% of DMSO final. After washing with PBS, the cells are incubated in medium containing the same concentrations of test molecules as previously, for 1 hour at 37° C. The drug intracellular fluorescence is measured with a FACscan flow cytometer (Becton Dickinson, Mountain View, Calif.). The fluorescent substrates are excited at 488 nm; the fluorescence emission of mitoxantrone (MTX) is measured at 650 nm and that of daunorubicin is measured at 530 nm. The efficacy of the test molecules is estimated by means of equation 1:
% efficacy=100×(FA−FBG)/(FC−FBG),
in which: • FA corresponds to the intracellular level of substrate measured in the cells overexpressing the transporter T (corresponding to the lowest level of fluorescence in the absence of inhibitor), • FC corresponds to the fluorescence in the control cells not expressing the test transporter. This is thus the maximum accumulation of substrate in the cells), • FBG corresponds to the fluorescence measured in the absence of substrate and in the presence of inhibitor.
The compounds presented in TABLES 2 to 5 were tested by flow cytometry on mammalian cell lines selectively expressing the efflux proteins ABCG2, ABCB1 or ABCC1, as described previously.
The mitoxantrone efflux induced by ABCG2 or ABCB1 and the daunorubicin efflux induced by ABCC1 are estimated by flow cytometry, as described previously, at 10 μM of each test compound, and then at 2 μM for the compounds showing at least 80% efficacy at 10 μM. The concentration inducing 50% inhibition (IC50) was estimated for the most efficient aza derivatives. The values are obtained by three independent experiments and were adjusted using the SigmaPlot software.

[1] = system: HEK-293 cells expressing ABCG2; assay: Chemosensitization to mitoxantrone, cell growth test (MTT); format: cell-based, human; conditions: 5 μM compound, 72 hours, compared with cells not expressing ABCG2
Method: The cells are seeded (10 000 cells/well) in 96-well plates and incubated for 24 hours at 37° C. under 5% CO2. Varied concentrations of mitoxantrone (from 0 to 20 μM in a constant final volume of 100 μL) are then added with an equal volume of each of the test compounds. The cells are then left to divide for 72 hours. The cytotoxicity is evaluated colorimetrically with 3-(4,5-dimethylthiazol-2-yl)-2,5-diphenyltetrazolium bromide (MTT).
Increasing concentrations of mitoxantrone (MTX) are applied to HEK-293 cells expressing or not expressing ABCG2 and subjected or not subjected to a treatment with 5 μM of compound (IA.2), and whose residual vitality is evaluated after 72 hours of treatment by an MIT test. The results are illustrated in FIG. 3, in which the cells expressing ABCG2 are represented by circles, and those not expressing it by squares; those that are treated with 5 μM of (IA.2), i.e. five times its IC50, appear as empty symbols, whereas those that are not treated with (IA.2) appear as solid symbols. […] Compound (IA.2) thus appears to be a very efficient chemosensitizer.
Increasing concentrations of mitoxantrone (MTX) are applied to HEK-293 cells expressing or not expressing ABCG2 and subjected or not subjected to a treatment with 5 μM of compound (IA.1), and whose residual vitality is evaluated after 72 hours of treatment by an MTT test. The results are illustrated in FIG. 5, in which the cells expressing ABCG2 are represented by circles, and those not expressing it by squares; those that are treated with 5 μM of (IA.1), i.e. 2.5 times its IC50, appear as empty symbols, whereas those that are not treated with (IA.1) appear as solid symbols. […]
Increasing concentrations of mitoxantrone (MTX) are applied to HEK-293 cells expressing or not expressing ABCG2 and subjected or not subjected to a treatment with 5 μM of compound (IB.1), and whose residual vitality is evaluated after 72 hours of treatment by an MTT test. […]

T1 sequence (P08183 whole entry): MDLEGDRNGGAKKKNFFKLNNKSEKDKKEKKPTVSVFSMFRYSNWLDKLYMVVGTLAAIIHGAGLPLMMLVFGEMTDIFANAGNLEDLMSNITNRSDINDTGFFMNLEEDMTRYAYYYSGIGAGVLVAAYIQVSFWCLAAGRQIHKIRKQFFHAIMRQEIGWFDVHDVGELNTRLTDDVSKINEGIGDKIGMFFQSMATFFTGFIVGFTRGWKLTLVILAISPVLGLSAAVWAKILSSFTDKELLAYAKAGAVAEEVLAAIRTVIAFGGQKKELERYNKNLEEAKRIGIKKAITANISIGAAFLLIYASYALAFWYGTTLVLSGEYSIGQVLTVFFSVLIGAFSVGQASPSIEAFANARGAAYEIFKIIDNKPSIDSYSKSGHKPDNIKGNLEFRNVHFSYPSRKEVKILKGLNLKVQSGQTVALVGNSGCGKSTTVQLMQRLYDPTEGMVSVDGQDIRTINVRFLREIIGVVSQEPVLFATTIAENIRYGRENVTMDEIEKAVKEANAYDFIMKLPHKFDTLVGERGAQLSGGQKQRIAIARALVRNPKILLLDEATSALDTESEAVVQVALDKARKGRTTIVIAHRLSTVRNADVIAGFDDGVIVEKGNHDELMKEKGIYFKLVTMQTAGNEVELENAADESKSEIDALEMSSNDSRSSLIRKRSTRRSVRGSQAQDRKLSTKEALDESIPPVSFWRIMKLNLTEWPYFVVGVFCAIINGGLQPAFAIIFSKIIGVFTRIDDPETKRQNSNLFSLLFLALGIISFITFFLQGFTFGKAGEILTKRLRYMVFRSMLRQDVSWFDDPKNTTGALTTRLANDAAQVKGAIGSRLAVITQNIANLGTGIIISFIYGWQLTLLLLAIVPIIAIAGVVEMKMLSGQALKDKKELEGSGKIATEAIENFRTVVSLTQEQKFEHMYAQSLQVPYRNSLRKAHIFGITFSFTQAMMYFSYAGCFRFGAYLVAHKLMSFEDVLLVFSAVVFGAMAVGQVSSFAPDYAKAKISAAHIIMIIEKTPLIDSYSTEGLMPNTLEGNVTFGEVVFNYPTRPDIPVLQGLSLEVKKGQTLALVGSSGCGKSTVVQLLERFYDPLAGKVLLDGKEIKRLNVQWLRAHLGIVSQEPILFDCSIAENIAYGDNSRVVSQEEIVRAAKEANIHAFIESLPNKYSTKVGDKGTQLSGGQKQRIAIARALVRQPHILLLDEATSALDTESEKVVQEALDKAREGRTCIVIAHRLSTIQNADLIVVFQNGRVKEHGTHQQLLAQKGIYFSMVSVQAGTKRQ

Row | SMILES | IC50 (P-gp/ABCB1) [nM] | inhibition at 2 μM (P-gp/ABCB1) [%] | inhibition at 10 μM (P-gp/ABCB1) [%] | chemosensitization: restoration of mitoxantrone sensitivity [1] | P-gp/ABCB1 IC50, μM (P-gp/ABCB1)
1 | CC(C)(C)OC(=O)NN(C(=O)N[C@@H](CCCCNC(=O)OCc1ccccc1)C(=O)OC(C)(C)C)c1ccccc1C(=O)OCc1ccccc1 [IA.1, tert-Butyl ester of (2S)-6-(benzyloxycarbonylamino)-2-[1-(2′-(benzyloxycarbonyl)phenyl)-2-(tert-butoxycarbonyl)hydrazino-carbonylamino]hexanoic acid] | ≤ 500 | 70 ± 10 | 74 ± 1 | chemosensitization; also recorded: restores virtually full mitoxantrone sensitivity | 
2 | CC(C)(C)OC(=O)N[C@H](CNN(CCCCCCNC(=O)OCc1ccccc1)C(=O)OCc1ccccc1)CC(=O)OCc1ccccc1 [IB.11, Benzyl ester of (3S)-4-[2-benzyloxycarbonyl-2-(6-benzyloxycarbonylaminohexyl)hydrazino]-3-tert-butoxycarbonyl-aminobutyric acid] | 700 ± 100 |  |  |  | micromolar or submicromolar
3 | CC(C)(C)OC(=O)N[C@H](CNN(CCCCCCNC(=O)OCc1ccccc1)C(=O)OC(C)(C)C)CC(=O)OCc1ccccc1 [IB.1, Benzyl ester of (3S)-4-[2-(6-benzyloxycarbonylaminohexyl)-2-tert-butoxycarbonylhydrazino]-3-tert-butoxycarbonylaminobutyric acid] | 1000 | 70 ± 20 | 63 ± 5 | chemosensitization; also recorded: virtually full restoration of mitoxantrone sensitivity | micromolar or submicromolar
4 | CC(C)(C)OC(=O)NN(C(=O)N[C@@H](CCCCNC(=O)OCc1ccccc1)C(=O)OC(C)(C)C)c1cccc(C(=O)OCc2ccccc2)c1 [IA.2, tert-Butyl ester of (2S)-6-(benzyloxycarbonylamino)-2-[1-(3′-(benzyloxycarbonyl)phenyl)-2-(tert-butoxycarbonyl)hydrazino-carbonylamino]hexanoic acid] |  |  | < 50 | chemosensitization; also recorded: restores mitoxantrone sensitivity equal to that observed in the control cells | 
